# Test system: hyperphosphorylated 3RTau
# Assay: Tau protein retinal staining: colocalization of Compound 5 with 3RTau antibody in retinal sections (confocal fluorescence)
# Assay type: binding, mice
# Conditions: for Pearson correlation coefficient (PCC) of colocalization with 3RTau antibody: Image J analysis, -1=complete anti-colocalization, 0=non colocalization, 1=complete colocalization
# Description: Retinas of different age of three-repeat tau (“3RTau”) mice (3 months, 6 months and 12 months) were mounted on slides. The retina were washed with PBS 2 times for 5 minutes. A solution of 98% formic acid was added—5 minutes for antigen retrieval. The sampled were washed with distilled water—2 times for 5 minutes. The samples were equilibrated in 1×PBS for 15 minutes, then blocked with 10% goat/donkey serum in 1×PBST (depending on antibodies) for 1 hour. The samples were then incubated with three-repeat tau antibody in 10% goat serum in 1×PBST at 4 degree C. overnight, then rinsed with 1×PBST 3 times for 5 minutes each. Samples were incubated with secondary antibody (Alexa Fluor 568 Anti mouse) in 1×PBST for 1 hour, then covered with foil, then rinsed with 1×PBST 3 times for 5 minutes each. Samples were stained with Compound 5 working solution for 30 minutes at room temperature, covered in foil, and washed with 1×PBS 3 times for 5 minutes each. Samples were stained with DAPI (300 nM or 100 ng/mL) in dark for 10 minutes, then tissues were washed 3×10 minutes with PBS. Antifade DAKO mounting medium was added, and coverslip and kept under foil until imaging. Images were obtained using a Leica confocal microscope.
# Fluorescent imaging study was conducted on a Leica DMI 4000B microscope (Leica, Germany) equipped with a TCS SPE camera and Leica 10, 20 and 40× objectives. The following lasers were used to visualize fluorescent probes pertaining to DAPI (blue, nuclear stain), Compound 5 (green) and 3RTau (red): 408, 488 and 568 nm. Z-stacked images were taken at 40× at 0.5 μm increments to visualize the entire thickness of the tissue.
smiles,measurement,setting,value
N#C/C(=C\c1ccc2cc(N3CCCCC3)ccc2c1)C(=O)NCC(O)CO (stereo not drawn) [Compound 5],Pearson correlation coefficient (PCC) of colocalization with 3RTau antibody,3RTau mouse retinal section,0.67
same,colocalization with 3Rtau immunoreactivity in retina (immunostaining),"3RTau transgenic mice retina, 3, 6 and 12 months",colocalizes
same,Pearson correlation coefficient (PCC) of colocalization with 3RTau antibody,control mouse retinal section,0.04

# Source: patent US20220370642A1, “METHODS OF DETECTING NEUROLOGICAL DISORDERS VIA BINDING TO PHOSPHORYLATED TAU PROTEIN” (Amydis, Inc., priority 2019, published 2022)
